We go through seven compounds from US11752155B2, “Treatment of autism spectrum disorders, obsessive-compulsive disorder and anxiety disorders” (Rugen Holdings (Cayman) Limited, priority 2016, dated 2023).

For data set [1] the following is noted: single subcutaneous administration, highest dose tested; cited from earlier work.
Data set [2] deals with human NR1/NR2A (Homo sapiens (Human), UniProt Q05586+Q12879). Nature of the data set: NR2A antagonist activity: calcium influx (Fluo-4) assay in HEK293 cells. Format: cell-based. The procedure: Activation of the NR2A or NR2B subtype of NMDA receptor with glutamate as an agonist and glycine co-agonist on these cells results in calcium influx, which can be monitored with fluorescent indicator Fluo-4.
For experiments, the cells were seeded onto poly-D-lysine-coated 96-well black plates with clear bottom (Corning) at a density of ˜50,000 cells/well. After overnight culture, the growth medium was removed from the wells and the cells were incubated at 37° C. for 60 minutes in Hanks buffer containing 4 μM fluo-4-AM (Invitrogen) and 0.1% bovine serum albumin (BSA). After dye-loading, the cells were washed three times with Hanks buffer and incubated for 10 minutes at room temperature with various concentrations of test compounds prepared in Hanks buffer with 0.1% BSA. The cell plates were placed onto an FDSS Cell fluorescence reader (Hamamatsu). After 20 seconds of reading background fluorescence, agonist glutamate at final 100 µM and co-agonist glycine at final 50 μM were added to the cells to activate the receptor, and the resulting fluorescence changes were recorded and quantified. Based on the changes in fluorescence intensity, the pharmacological effect of test compounds was analyzed and the IC50 values derived from a non-linear least squares fitting of the concentration-dependent response to a standard logistic equation using Prism (Graphpad Software, Inc.): Amplitude=Max Amplitude/(1+(IC50/[antagonist])^n).

The target of data set [3] is CYP2D6 (Homo sapiens (Human), UniProt P10635). Put plainly: CYP P450 enzyme inhibition in pooled human liver microsomes (dextromethorphan probe). In kind it is in vitro ADME. The conditions noted are these: for inhibition at 10 min, 10 µM: human, pooled human liver microsomes, pH 7.4, probe dextromethorphan, 5 μM, read-out: CYP2D6 Inhibiton at 10 μM. The procedure:
Test compound concentration-dependent response studies were performed in triplicate.

Data set [4] deals with Sapap3 knockout mice. Put plainly: Grooming Test in Sapap3 knockout mice. In kind it is in vivo, mouse. How it is done: (§1) Animals. The breeding conditions and genotyping methods for Sapap3 and Shank3 complete knockout mice were the same as described in Welch et al. (Nature 2007, 448(7156):894-900) and in Wang et al. (Nat. Commun. 2016, 7:11459), respectively. Homozygous knockout mice and littermate wild type mice of both genders were used at 4 to 8 weeks of age.
(§2) Compound formulation. The test compounds were dissolved in a small volume of dimethyl sulfoxide (DMSO) and diluted in an aqueous solution of 2-hydroxypropyl-beta-cyclodextrin (HP-β-CD) and administered IP. Dosing volume was 10 mL/kg. At 20 minutes after dosing, the mice were subjected to the behavioral test as described below.
(§3) Testing room and apparatus. The test room was maintained under the same conditions as the colony rooms, except the mice were housed in conventional shoe-box cages with food, water, and nesting materials. Animals were housed in the test room 48-72 hours prior to testing, in order to permit the mice to fully acclimate to the test room and conventional housing cages before testing. Tests were conducted in white polyvinyl-fluoride hard-sided foam test arenas (20×20×12 cm). The arenas were indirectly illuminated by dimmable LED light bars placed level with the arena floor and 30 cm away from the external wall of the test arena. This permitted the internal area of the arena to be evenly illuminated at approximately 40 lux. The illumination levels where the mice were housed before testing were about 80-100 lux.
(§4) Testing procedure. Mice were carefully placed into the test arenas 20 minutes after compound administration. Animals were given free exploration of the arena for 10 minutes, after which they were gently sprayed with 4 quick pumps of a water mist (total water volume approximated 1.5-1.7 mL). Mice were then allowed an additional 10 minutes to self-groom and engage in other behaviors before being removed from the arena. All tests were videotaped using cameras mounted above the testing arena and were saved to digital media format using Noldus Media Player software (Noldus Information Technologies, Leesburg, Va.). The mice were only tested once in the acute studies and were repeatedly tested in the sustained effect studies.
(§5) Quantitation of grooming bouts. Analyses of the video recordings were conducted with TopScan behavioral recognition software (Cleversys Inc, Reston, Va.). Configurations were made which scored time spent in grooming. […] These settings permitted automated scoring of grooming by TopScan that corresponded well to manual-scoring of these behaviors by a trained blinded observer using Noldus Observer XT9 (Noldus Information Technologies), with an average corrected kappa of 0.925 (range 0.807-0.983).
(§6) Statistical analyses. Data are presented as means and standard error of the means (SEMs). Analyses were conducted using SPSS 23 (IBM SPSS Statistics, Chicago, Ill.). Time spent in grooming behavior (seconds) over the 10-minute pre- and post-spray time blocks were analyzed with repeated measures analyses of variance (RMANOVA). The pre- and post-spray times were used for the within subject effects and the genotype and compound treatment condition were used as the between subject effects. In sustained effect studies, days were also used for a within subject effect. Some analyses of total groom time were performed in Prism 7.01 (GraphPad Software, La Jolla, Calif.), with one-way ANOVAs to compare genotypes on Day 1 or with RMANOVAs to compare treatment groups within the same genotype across days. Treatments with compounds were compared independently with the vehicle. All post-hoc comparisons were performed with Bonferroni corrections for multiple comparisons to avoid a Type I error. In all cases, a p<0.05 was considered significant.
Next, the effect of two subunit-selective NR2B antagonists administered as a single IP dose and assessed 20 minutes postdose was studied in the Sapap3 knockout mice (n=6-10 mice per treatment group). […]

Data set [5] has as its target hERG channel (Homo sapiens (Human), UniProt Q12809). Put plainly: hERG channel inhibition, whole cell patch clamp in HEK293 cells. Format: cell-based. The conditions noted are these: for inhibition at 5 min, 10 µM: human, HEK293 cells stably expressing hERG channel, pH 7.35.
Description: The assay was performed on hERG channel stably expressed in HEK293 cells. The cells were cultured at 37° C. in a humidified CO2 incubator in the growth medium consisting of DMEM, 10% fetal bovine serum and antibiotics. Prior to the assay, the cells were seeded onto a 12-mm PDL-coated glass coverslip and cultured in a 35-mm Petri dish. After 16 to 40 hours culture, the coverslip was transferred into the chamber of OctaFlow perfusion system (ALA Instrument) and under a constant flow of extracellular solution (140 mM NaCl, 4 mM KCl, 1 mM MgCl2, 2 mM CaCl2, 10 mM HEPES, 10 mM D-glucose, pH 7.35, osmolarity 290). Whole cell patch clamping was performed with a glass micropipette filled with intracellular solution (120 mM KCl, 1.75 mM MgCl2, 5.4 mM CaCl2, 10 mM HEPES, 10 mM EGTA, and 4 mM ATP-K2, pH 7.2, osmolarity 310). Giga-seal was maintained during the test. The voltage control and current measurement were carried out using Axon amplifier 700B, Digidata 1440A and CLAMPEX10 software (Molecular Devices). Whole-cell hERG currents were recorded following the Petroski protocol: the cell was held at −80 mV, and the voltage step jumped from −80 to 30 mV and stay for 2 seconds with a 20-millisecond prepulse at −40 mV. After depolarization, the voltage was decreased to −40 mV and stay for 2 seconds, and returned back to −80 mV. Test compound was applied by quartz capillary tubes tip (200 m inner diameter), and the flow rate was controlled at 2-3 mL/min with OctaFlow perfusion system. Different concentrations of the compound were applied to the cells for 5 minutes and the hERG current was measured three times before, during and after compound treatment. The data were analyzed using Clampfit 10 software (Molecular Devices) to generate IC50 values.
Data set [6] relates to wild type mice (male NMRI). Put plainly: Marble Burying Test in wild type mice. In kind it is in vivo, mouse. To be noted: Mus musculus, ip, read-out: Percent Change in marbles buried relative to vehicle. In a few lines: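 Male NMRI mice, 12 per group, received compound in 0.5% DMSO/4% HP-β-CD PO or IP 20 min before test. Marbles (25) buried two-thirds or more in sawdust were counted over a blind 30-min session. Groups were compared with vehicle by Kruskal-Wallis then Mann-Whitney U.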

The test system of data set [7] is wild type littermate mice. Nature of the data set: Grooming Test in wild type littermates of Sapap3 and Shank3 complete knockout mice. In kind it is in vivo, mouse. The procedure: as §1, §2, §3, §4, §5, §6
The wild type littermates of the Sapap3 knockout and Shank3 complete knockout mice were retested after Day 1 compound administration to determine whether the sustained effects were unique to the knockout mice. […]

Data set [8] deals with human NR1/NR2B (Homo sapiens (Human), UniProt Q05586+Q13224). Put plainly: NR2B antagonist activity: calcium influx (Fluo-4) assay in HEK293 cells. The conditions noted are these: read-out: NR2B IC50. Format: cell-based. In a few lines: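 HEK293 cells expressing NR1/NR2A or NR1/NR2B, loaded with fluo-4-AM, preincubated 10 min at room temperature with compound in Hanks buffer/0.1% BSA.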

The conditions of data set [9]: after 8 weeks of treatment; cited from earlier work.
For data set [10] the following is noted: 18 patients, 6-19 years of age; cited from earlier work.
Where [11] appears, read: Table 1.1B, read-out: NR2A IC50.

Where a name gives a salt, the structure may show the parent alone. Read-outs that look alike come from different tables or passages of the source. Some results are limits rather than exact numbers.

Chain of human NR1/NR2B (Q13224 27-1484, other chains not shown): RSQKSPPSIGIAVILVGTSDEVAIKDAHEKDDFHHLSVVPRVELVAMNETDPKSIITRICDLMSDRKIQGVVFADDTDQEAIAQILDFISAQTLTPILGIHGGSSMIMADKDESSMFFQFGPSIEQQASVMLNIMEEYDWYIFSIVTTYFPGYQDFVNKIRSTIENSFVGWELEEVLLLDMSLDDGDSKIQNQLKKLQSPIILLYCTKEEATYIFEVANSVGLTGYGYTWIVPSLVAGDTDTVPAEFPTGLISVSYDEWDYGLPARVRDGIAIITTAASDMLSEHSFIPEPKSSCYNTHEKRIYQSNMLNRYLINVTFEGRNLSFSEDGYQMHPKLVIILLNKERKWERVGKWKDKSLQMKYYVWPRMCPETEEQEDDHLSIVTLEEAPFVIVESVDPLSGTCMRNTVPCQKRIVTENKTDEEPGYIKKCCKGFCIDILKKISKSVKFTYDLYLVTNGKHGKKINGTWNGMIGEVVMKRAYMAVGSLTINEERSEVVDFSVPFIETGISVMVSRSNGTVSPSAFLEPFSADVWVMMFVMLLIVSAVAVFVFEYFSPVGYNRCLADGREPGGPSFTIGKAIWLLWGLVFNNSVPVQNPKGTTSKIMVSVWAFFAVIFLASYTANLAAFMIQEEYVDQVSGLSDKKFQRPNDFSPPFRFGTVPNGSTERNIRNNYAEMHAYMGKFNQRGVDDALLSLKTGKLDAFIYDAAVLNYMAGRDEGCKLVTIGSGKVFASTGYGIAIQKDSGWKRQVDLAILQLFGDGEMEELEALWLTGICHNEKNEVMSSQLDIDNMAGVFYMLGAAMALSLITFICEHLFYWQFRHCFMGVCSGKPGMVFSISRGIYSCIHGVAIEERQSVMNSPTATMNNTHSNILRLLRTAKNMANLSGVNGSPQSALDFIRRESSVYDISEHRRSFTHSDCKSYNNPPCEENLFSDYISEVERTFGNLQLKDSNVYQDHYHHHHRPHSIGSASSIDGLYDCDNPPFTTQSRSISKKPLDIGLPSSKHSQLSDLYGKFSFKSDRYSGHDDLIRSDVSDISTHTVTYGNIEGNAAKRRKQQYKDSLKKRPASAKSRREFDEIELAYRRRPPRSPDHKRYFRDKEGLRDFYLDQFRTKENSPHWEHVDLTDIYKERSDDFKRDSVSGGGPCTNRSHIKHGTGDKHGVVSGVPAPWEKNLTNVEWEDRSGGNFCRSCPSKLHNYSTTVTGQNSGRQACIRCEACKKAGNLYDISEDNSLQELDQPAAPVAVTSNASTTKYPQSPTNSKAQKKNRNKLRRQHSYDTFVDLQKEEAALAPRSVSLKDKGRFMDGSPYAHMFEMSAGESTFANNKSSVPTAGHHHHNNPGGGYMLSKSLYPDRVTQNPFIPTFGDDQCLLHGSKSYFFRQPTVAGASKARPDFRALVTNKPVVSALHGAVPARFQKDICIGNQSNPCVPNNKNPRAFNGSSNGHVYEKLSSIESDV
Chain of CYP2D6 (P10635 whole entry): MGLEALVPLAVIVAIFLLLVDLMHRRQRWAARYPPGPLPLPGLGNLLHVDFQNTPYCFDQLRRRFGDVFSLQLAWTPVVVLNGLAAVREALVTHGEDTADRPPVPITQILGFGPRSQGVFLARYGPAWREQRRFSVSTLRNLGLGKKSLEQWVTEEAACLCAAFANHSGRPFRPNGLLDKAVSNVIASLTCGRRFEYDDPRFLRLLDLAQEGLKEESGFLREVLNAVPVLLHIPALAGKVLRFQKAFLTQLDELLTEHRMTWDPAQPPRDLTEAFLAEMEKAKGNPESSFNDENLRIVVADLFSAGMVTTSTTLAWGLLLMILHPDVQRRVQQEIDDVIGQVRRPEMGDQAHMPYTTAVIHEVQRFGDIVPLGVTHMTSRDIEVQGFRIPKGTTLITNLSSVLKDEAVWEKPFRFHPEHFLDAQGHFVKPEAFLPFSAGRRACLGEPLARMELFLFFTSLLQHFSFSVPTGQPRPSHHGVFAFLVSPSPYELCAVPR
Chain of human NR1/NR2A (Q12879 23-1464, other chains not shown): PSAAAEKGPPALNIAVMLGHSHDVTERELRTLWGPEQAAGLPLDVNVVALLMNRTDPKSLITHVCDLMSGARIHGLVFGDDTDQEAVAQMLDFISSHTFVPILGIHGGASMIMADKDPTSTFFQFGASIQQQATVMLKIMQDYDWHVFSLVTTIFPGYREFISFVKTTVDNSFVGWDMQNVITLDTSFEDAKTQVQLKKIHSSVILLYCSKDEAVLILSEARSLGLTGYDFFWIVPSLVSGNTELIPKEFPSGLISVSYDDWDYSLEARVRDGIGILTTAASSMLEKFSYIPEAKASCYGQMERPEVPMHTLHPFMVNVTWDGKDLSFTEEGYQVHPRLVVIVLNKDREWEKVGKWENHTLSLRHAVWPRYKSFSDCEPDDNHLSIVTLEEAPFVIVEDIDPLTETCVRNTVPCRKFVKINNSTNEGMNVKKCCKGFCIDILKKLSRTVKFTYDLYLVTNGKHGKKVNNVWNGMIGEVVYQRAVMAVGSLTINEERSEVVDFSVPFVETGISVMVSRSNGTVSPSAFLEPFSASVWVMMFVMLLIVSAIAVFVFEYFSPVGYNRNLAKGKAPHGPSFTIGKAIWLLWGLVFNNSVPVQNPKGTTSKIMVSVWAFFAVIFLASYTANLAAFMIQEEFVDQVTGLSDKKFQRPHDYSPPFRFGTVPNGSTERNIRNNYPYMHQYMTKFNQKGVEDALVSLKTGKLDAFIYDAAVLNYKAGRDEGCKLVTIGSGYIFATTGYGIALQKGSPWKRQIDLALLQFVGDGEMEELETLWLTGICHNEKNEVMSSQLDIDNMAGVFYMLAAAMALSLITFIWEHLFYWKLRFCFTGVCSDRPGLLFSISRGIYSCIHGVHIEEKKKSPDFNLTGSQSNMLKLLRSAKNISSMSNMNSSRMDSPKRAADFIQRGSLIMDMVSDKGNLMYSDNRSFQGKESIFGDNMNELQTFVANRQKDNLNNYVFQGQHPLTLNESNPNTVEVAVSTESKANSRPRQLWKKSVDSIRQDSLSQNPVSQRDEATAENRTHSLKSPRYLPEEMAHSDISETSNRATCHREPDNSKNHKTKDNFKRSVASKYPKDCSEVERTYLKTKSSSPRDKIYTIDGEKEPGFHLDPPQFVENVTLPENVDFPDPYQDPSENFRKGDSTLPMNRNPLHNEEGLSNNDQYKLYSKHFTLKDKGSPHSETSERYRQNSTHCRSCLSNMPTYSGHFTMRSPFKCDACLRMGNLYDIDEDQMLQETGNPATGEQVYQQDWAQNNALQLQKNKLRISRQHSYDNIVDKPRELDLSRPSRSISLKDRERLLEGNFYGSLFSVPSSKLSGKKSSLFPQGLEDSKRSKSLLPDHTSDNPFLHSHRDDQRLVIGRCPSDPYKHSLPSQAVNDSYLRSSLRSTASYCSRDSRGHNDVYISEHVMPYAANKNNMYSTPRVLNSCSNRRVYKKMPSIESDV
Chain of hERG channel (Q12809 whole entry): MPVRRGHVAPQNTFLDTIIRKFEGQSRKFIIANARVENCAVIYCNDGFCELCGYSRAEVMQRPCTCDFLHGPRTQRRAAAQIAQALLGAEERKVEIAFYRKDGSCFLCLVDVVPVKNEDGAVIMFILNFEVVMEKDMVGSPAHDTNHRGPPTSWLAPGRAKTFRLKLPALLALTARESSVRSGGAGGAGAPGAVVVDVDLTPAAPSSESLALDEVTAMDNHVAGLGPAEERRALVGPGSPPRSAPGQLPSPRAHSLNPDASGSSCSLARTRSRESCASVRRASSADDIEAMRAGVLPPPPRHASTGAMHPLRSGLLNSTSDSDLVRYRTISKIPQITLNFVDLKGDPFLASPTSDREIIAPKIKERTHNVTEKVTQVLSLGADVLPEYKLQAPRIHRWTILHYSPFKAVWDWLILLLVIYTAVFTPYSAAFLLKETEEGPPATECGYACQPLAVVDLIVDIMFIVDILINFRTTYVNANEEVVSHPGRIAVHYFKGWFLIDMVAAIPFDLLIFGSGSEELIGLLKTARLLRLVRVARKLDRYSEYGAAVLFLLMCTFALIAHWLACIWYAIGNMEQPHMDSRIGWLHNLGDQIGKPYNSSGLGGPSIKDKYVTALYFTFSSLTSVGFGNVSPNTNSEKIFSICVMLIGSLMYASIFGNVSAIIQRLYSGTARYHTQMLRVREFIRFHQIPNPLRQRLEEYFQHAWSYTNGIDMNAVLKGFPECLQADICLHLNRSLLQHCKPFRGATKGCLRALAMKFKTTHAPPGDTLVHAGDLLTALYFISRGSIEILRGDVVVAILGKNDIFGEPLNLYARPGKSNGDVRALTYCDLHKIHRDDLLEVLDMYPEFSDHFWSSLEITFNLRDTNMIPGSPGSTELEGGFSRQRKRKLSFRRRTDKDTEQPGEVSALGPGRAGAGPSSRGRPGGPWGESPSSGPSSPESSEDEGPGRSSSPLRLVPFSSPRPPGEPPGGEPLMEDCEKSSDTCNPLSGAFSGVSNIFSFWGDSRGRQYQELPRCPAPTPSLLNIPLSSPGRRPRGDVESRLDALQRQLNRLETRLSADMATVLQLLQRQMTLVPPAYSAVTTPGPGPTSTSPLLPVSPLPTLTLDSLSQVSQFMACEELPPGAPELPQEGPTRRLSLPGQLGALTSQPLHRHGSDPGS

On to `C[C@@H](CN1CCC(Cc2ccccc2)CC1)[C@@H](O)c1ccc(O)cc1` [Ro25-6981], for which the “efficacy in the Marble Burying Test” value in data set [1] is “modest efficacy”.

As for `FC(F)(CN1CCC(Nc2ncnc3[nH]ccc23)CC1)c1ccccn1` [C-1^A′], the IC50 (in general, the concentration that gives 50% inhibition) in data set [2] is > 10 µM.

Take `O=C(OCc1ccc(C(F)F)cc1)N1CC[C@H](CNc2ncccn2)C(F)(F)C1` [E1-22.6^B′, (R)-4-(difluoromethyl)benzyl 3,3-difluoro-4-((pyrimidin-2-ylamino)methyl)piperidine-1-carboxylate mesylate]: the 50% inhibitory concentration (IC50) in data set [3] (Table 1.4B) was determined as 41 µM; in data set [5] (Table 1.3B) it was 7.3 µM. The “significantly reduced grooming through Day” value in data set [4] (first dose 3 mg/kg IP on Day 1) and in [4] (single dose 1 mg/kg IP on Day 1) was 15 days each time. For the same compound, the “acute effect on excessive self-grooming” value in data set [4] (single IP dose, 20 min postdose, Day 1) is “significantly reduced grooming”. In data set [6] (0.1 mg/kg), the change in vivo at 0.1 mg/kg is -30%. Besides, the change in vivo at 0.3 mg/kg in data set [6] (0.3 mg/kg) was -95%. In addition, the change in vivo at 3 mg/kg in data set [6] (3 mg/kg) is -98%. For the same compound, in [6] (10 mg/kg), the change in vivo at 10 mg/kg is -100%. Moreover, the “effect on grooming on Day 3” value is reported as “did not show an effect” in data set [7] (1 mg/kg IP on Day 1, wild type littermates) and “significantly reduced grooming” in data set [7] (3 mg/kg IP on Day 1, wild type littermates, mesylate). Further, the “effect on grooming on Day 1” value in [7] (1 mg/kg IP, wild type littermates) was “significant reduction in grooming”. Also, in data set [7] (3 mg/kg IP on Day 1, wild type littermates), the “effect on grooming on Day 5” value is listed as “significantly increased grooming”. Further, in [7] (wild type littermates of Sapap3 knockout mice, dose-dependent), the “acute effect on grooming on Day 1” value is “significantly reduced grooming”.

Turning to `Cc1ccc(COC(=O)N2CC[C@H](CNc3nc4ccccn4n3)C(F)(F)C2)cc1` [E1-9.2^B′], the inhibition at 10 min, 10 µM in data set [3] was determined as 14%. Further, the IC50 in data set [2] (setting [11]) is > 10 µM. Moreover, the inhibition at 5 min, 10 µM in [5] stood at 38%.

Take `Cc1ccc(COC(=O)N2CC[C@H](CNc3ncc4cn[nH]c4n3)C(F)(F)C2)cc1` [E1-8.2^B′]: in [3], the inhibition at 10 min, 10 µM amounted to 83%. In addition, the IC50 in data set [2] (setting [11]) was > 10 µM. The same compound displayed an inhibition at 5 min, 10 µM in [5] of 57%.

On to `CCc1ccc(COC(=O)N2CC[C@H](CNc3nccn4cnnc34)C(F)(F)C2)cc1` [E1-1.5^B′], for which the inhibition at 10 min, 10 µM in data set [3] came to 28%. The IC50 in data set [8] (Table 1.1B) was 0.0096 µM; in data set [8] (Table 1.3B), 0.0096 µM; in data set [8] (Table 1.4B) it was 0.0096 µM; in data set [2] (setting [11]), > 10 µM. The compound further showed an inhibition at 5 min, 10 µM in data set [5] of 46%.

As to `CC12CC3CC(C)(C1)CC(N)(C3)C2` [memantine], in data set [9], the remission is reported as 89% and the response is 100%. The “patients who developed adverse effects” value in data set [10] was “seven out of 18”.
